Experimental data published in patent US20250163038A1, “CBL-B MODULATORS AND USES THEREOF” (Nimbus Clio, Inc., priority 2021, published 2025).
Where two headings read alike, the source gives them in different places.

What was measured:
[1] = tested on: Jurkat (clone E6-1) cells with NFAT luciferase reporter; test: Jurkat reporter assay (NFAT Luciferase); format: cell-based; details: Homo sapiens; Jurkat NFAT luciferase reporter cells, anti-CD3 stimulation, 6 hr; read-out: Jurkat NFAT EC50
[2] = molecular target: Recombinant human Cbl-b (aa 36-427) (Homo sapiens, UniProt Q13191); test: Cbl-b Biochemical Assay (TR-FRET)
[3] = molecular target: T1, Recombinant human c-Cbl (aa 47-435) (Homo sapiens, UniProt P22681); test: c-Cbl Biochemical Assay (TR-FRET)
T1 sequence (P22681 47-435): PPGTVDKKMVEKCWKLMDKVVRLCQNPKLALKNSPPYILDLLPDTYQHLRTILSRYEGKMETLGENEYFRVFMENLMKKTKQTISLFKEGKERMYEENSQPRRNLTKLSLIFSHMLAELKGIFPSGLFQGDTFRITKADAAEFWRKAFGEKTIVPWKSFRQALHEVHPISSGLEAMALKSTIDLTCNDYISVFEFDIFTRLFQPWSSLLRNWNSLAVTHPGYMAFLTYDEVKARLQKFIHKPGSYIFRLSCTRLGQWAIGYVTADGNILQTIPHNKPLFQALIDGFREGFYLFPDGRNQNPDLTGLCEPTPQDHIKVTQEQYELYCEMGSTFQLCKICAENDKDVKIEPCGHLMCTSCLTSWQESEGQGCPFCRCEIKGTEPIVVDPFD

[4] = hc-Cbl Biochemical Assay (TR-FRET), read-out: TR-FRET hcCbl IC50

Sequence of Recombinant human Cbl-b (aa 36-427) (Q13191 36-427): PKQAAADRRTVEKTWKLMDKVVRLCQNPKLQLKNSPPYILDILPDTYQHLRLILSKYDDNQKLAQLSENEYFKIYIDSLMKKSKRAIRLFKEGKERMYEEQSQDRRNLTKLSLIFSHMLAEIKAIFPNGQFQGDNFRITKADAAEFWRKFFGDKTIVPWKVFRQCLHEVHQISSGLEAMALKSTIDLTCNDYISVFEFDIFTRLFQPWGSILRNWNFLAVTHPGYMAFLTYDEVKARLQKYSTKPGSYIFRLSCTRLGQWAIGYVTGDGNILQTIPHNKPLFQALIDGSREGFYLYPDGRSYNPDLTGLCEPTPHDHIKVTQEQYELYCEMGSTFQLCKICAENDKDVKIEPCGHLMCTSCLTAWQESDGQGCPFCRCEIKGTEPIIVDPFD

Row | SMILES | EC50 [1] [µM] | IC50 ([2]; read-out: TR-FRET hCbl-b IC50) [µM] | IC50 [3, 4] [µM] | IC50 [2] [µM] | IC50 [3] [µM]
1 | Cn1cnnc1-c1cc(F)ccc1-c1cc(-c2nc3cc(CNCC4(O)CCCC4)ccc3o2)nc(C2CC2)c1 [AFE-1, 1-({[(2-{6-Cyclopropyl-4-[4-fluoro-2-(4-methyl-1,2,4-triazol-3-yl)phenyl]pyridin-2-yl}-1,3-benzoxazol-5-yl)methyl]amino}methyl)cyclopentan-1-ol] | < 0.2 | < 0.2 | < 0.2 |  | 
2 | Cn1cnnc1-c1cc(F)ccc1-c1cccc(-c2nc3cc(CNCC4(O)CCC4)c(F)c(F)c3o2)c1 [IW-1, 1-((((6,7-Difluoro-2-(4′-fluoro-2′-(4-methyl-4H-1,2,4-triazol-3-yl)-[1,1′-biphenyl]-3-yl)benzo[d]oxazol-5-yl)methyl)amino)methyl)cyclobutan-1-ol] | < 0.2 | < 0.2 | < 0.2 |  | 
3 | Cn1cnnc1-c1cc(F)ccc1-c1cccc(-c2cn3cc(CN[C@@H]4CCC[C@@H]4O)ccc3n2)c1 [GL-2, (1S,2R)-2-(((2-(4′-fluoro-2′-(4-methyl-4H-1,2,4-triazol-3-yl)-[1,1′-biphenyl]-3-yl)imidazo[1,2-a]pyridin-6-yl)methyl)amino)cyclopentan-1-ol] | 10 to 50 | 1 to 10 | 1 to 10 |  | 
4 | COc1cc(CO)cc2nc(-c3cc(-c4ccc(F)cc4-c4nncn4C)cc(C4CC4)n3)oc12 [AEX-2, (2-{6-Cyclopropyl-4-[4-fluoro-2-(4-methyl-1,2,4-triazol-3-yl)phenyl]pyridin-2-yl}-7-methoxy-1,3-benzoxazol-5-yl)methanol] | 1 to 10 | 0.2 to 1 | 1 to 10 |  | 
5 | Cn1cnnc1-c1cc(F)ccc1-c1cc(-c2nc3cc(CNC(C)(C)C4CCC4)c(F)c(F)c3o2)nc(C2CC2)c1 [AGD-1, (2-Cyclobutylpropan-2-yl)[(2-{6-cyclopropyl-4-[4-fluoro-2-(4-methyl-1,2,4-triazol-3-yl)phenyl]pyridin-2-yl}-6,7-difluoro-1,3-benzoxazol-5-yl)methyl]amine] | 1 to 10 | < 0.2 | 0.2 to 1 |  | 
6 | Cn1cnnc1-c1cc(F)ccc1-c1cc(-c2nc3cc(CN[C@@H]4CCC[C@]4(C)O)cc(F)c3o2)nc(C2CC2)c1 [AFL-2, (1S,2R)-2-(((2-(6-Cyclopropyl-4-(4-fluoro-2-(4-methyl-4H-1,2,4-triazol-3-yl)phenyl)pyridin-2-yl)-7-fluorobenzo[d]oxazol-5-yl)methyl)amino)-1-methylcyclopentan-1-ol] | 1 to 10 |  |  | < 0.2 | 0.2 to 1
7 | COCCNCc1ccc2oc(-c3cc(-c4ccc(C#N)cc4-c4nncn4C)cc(C4CC4)n3)nc2c1 [AEN-15, 4-[2-Cyclopropyl-6-(5-{1[(2-methoxyethyl)amino]methyl}-1,3-benzoxazol-2-yl)pyridin-4-yl]-3-(4-methyl-1,2,4-triazol-3-yl)benzonitrile] | 0.2 to 1 | < 0.2 | 0.2 to 1 |  | 
8 | Cn1cnnc1-c1cc(C#N)ccc1-c1cc(-c2nc3cc(CNCC4CCC4)ccc3o2)nc(C2CC2)c1 [AEO-1, 4-[2-(5-{[(Cyclobutylmethyl)amino]methyl}-1,3-benzoxazol-2-yl)-6-cyclopropylpyridin-4-yl]-3-(4-methyl-1,2,4-triazol-3-yl)benzonitrile] | < 0.2 | < 0.2 | < 0.2 |  | 
9 | Cc1cc(CNCC2(F)CCC2)cc2nc(-c3cccc(-c4ccc(F)cc4-c4nncn4C)c3)oc12 [IC-1, 1-(2-(4′-Fluoro-2′-(4-methyl-4H-1,2,4-triazol-3-yl)-[1,1′-biphenyl]-3-yl)-7-methylbenzo[d]oxazol-5-yl)-N-((1-fluorocyclobutyl)methyl)methanamine] | 0.2 to 1 | < 0.2 | < 0.2 |  | 
10 | COc1cccc2oc(-c3cccc(-c4ccc(F)cc4-c4nncn4C)c3)nc12 [FH-2, 2-(4′-Fluoro-2′-(4-methyl-4H-1,2,4-triazol-3-yl)-[1,1′-biphenyl]-3-yl)-4-methoxybenzo[d]oxazole] | 10 to 50 | 1 to 10 | 1 to 10 |  | 
11 | CN1CCC[C@H](NCc2cc(C(F)(F)F)c3[nH]c(-c4cccc(-c5ccc(F)cc5-c5nncn5C)c4)nc3c2)C1=O [CC-2, (S)-3-(((2-(4′-Fluoro-2′-(4-methyl-4H-1,2,4-triazol-3-yl)-[1,1′-biphenyl]-3-yl)-7-(trifluoromethyl)-1H-benzo[d]imidazol-5-yl)methyl)amino)-1-methylpiperidin-2-one, formic Acid] | 1 to 10 | < 0.2 | 1 to 10 |  | 

Now from value to compound, other results behind:

Row | EC50 [1] [µM] | IC50 ([2]; read-out: TR-FRET hCbl-b IC50) [µM] | IC50 [3, 4] [µM] | SMILES | IC50 [2] [µM] | IC50 [3] [µM]
12 | 0.2 to 1 | < 0.2 | < 0.2 | Cn1cnnc1-c1cc(F)ccc1-c1cccc(-c2nc3cc(CNCC(O)(C(F)(F)F)C(F)(F)F)cc(C(F)(F)F)c3o2)c1 [CZ-2, 1,1,1,3,3,3-Hexafluoro-2-((((2-(4′-fluoro-2′-(4-methyl-4H-1,2,4-triazol-3-yl)-[1,1′-biphenyl]-3-yl)-7-(trifluoromethyl)benzo[d]oxazol-5-yl)methyl)amino)methyl)propan-2-ol] |  | 
13 | 1 to 10 | < 0.2 | 1 to 10 | Cn1cnnc1-c1cc(F)ccc1-c1cccc(-c2nc3cc(CN[C@@H]4CCC[C@H]4O)cc(C(F)(F)F)c3[nH]2)c1 [BK-2, (1R,2R)-2-(((2-(4′-Fluoro-2′-(4-methyl-4H-1,2,4-triazol-3-yl)-[1,1′-biphenyl]-3-yl)-7-(trifluoromethyl)-1H-benzo[d]imidazol-5-yl)methyl)amino)cyclopentan-1-ol] |  | 
14 | 1 to 10 | < 0.2 | 0.2 to 1 | Cn1cnnc1-c1cc(F)ccc1-c1cccc(-c2nc3cc(NCCN4CCC4)cc(C(F)(F)F)c3o2)c1 [HZ-2, N-(2-(Azetidin-1-yl)ethyl)-2-(4′-fluoro-2′-(4-methyl-4H-1,2,4-triazol-3-yl)-[1,1′-biphenyl]-3-yl)-7-(trifluoromethyl)benzo[d]oxazol-5-amine] |  | 
15 | 1 to 10 | < 0.2 | 1 to 10 | Cn1cnnc1-c1cc(F)ccc1-c1cccc(-c2nc3cc(CN4CCC5(CC4)CC5)cc(C(F)(F)F)c3o2)c1 [AG-2, 5-((6-Azaspiro[2.5]octan-6-yl)methyl)-2-(4′-fluoro-2′-(4-methyl-4H-1,2,4-triazol-3-yl)-[1,1′-biphenyl]-3-yl)-7-(trifluoromethyl)benzo[d]oxazole] |  | 
16 | < 0.2 | < 0.2 | < 0.2 | Cn1cnnc1-c1cc(F)ccc1-c1cccc(-c2nc3cc(CN[C@H]4CCC[C@@H]4O)cc(C(F)(F)F)c3o2)c1 [HJ-1, (1S,2S)-2-(((2-(4′-Fluoro-2′-(4-methyl-4H-1,2,4-triazol-3-yl)-[1,1′-biphenyl]-3-yl)-7-(trifluoromethyl)benzo[d]oxazol-5-yl)methyl)amino)cyclopentan-1-ol] |  | 
17 | 10 to 50 | 0.2 to 1 | 1 to 10 | Cn1cnnc1-c1cc(F)ccc1-c1cccc(-c2nc3cc(N[C@@H]4CCC[C@@H]4O)cc(C(F)(F)F)c3o2)c1 [HV-3, (1S,2R)-2-((2-(4′-Fluoro-2′-(4-methyl-4H-1,2,4-triazol-3-yl)-[1,1′-biphenyl]-3-yl)-7-(trifluoromethyl)benzo[d]oxazol-5-yl)amino)cyclopentan-1-ol] |  | 
18 | 1 to 10 | < 0.2 | 1 to 10 | Cn1cnnc1-c1cc(F)ccc1-c1cccc(-c2nc3cc(CNC4(CO)COC4)cc(C(F)(F)F)c3o2)c1 [Example Z-2, (3-(((2-(4′-Fluoro-2′-(4-methyl-4H-1,2,4-triazol-3-yl)-[1,1′-biphenyl]-3-yl)-7-(trifluoromethyl)benzo[d]oxazol-5-yl)methyl)amino)oxetan-3-yl)methanol] |  | 
19 | 10 to 50 | 0.2 to 1 | 1 to 10 | COc1cc(CN[C@H]2C[C@H](O)C2)cc2nc(-c3cccc(-c4ccc(F)cc4-c4nncn4C)c3)oc12 [GY-1, (1R,3R)-3-(((2-(4′-Fluoro-2′-(4-methyl-4H-1,2,4-triazol-3-yl)-[1,1′-biphenyl]-3-yl)-7-methoxybenzo[d]oxazol-5-yl)methyl)amino)cyclobutan-1-ol] |  | 
20 | 1 to 10 | 1 to 10 | 1 to 10 | Cn1cnnc1-c1cc(F)ccc1-c1cccc(-c2nc3cc(NCCC4CCCC4)cc(C(F)(F)F)c3o2)c1 [HM-3, N-(2-Cyclopentylethyl)-2-(4′-fluoro-2′-(4-methyl-4H-1,2,4-triazol-3-yl)-[1,1′-biphenyl]-3-yl)-7-(trifluoromethyl)benzo[d]oxazol-5-amine] |  | 
21 | < 0.2 | < 0.2 | < 0.2 | Cn1cnnc1-c1cc(F)ccc1-c1cccc(-c2nc3cc(CNCC4CCC4)cc(C(F)(F)F)c3o2)c1 [EM-2, 1-Cyclobutyl-N-((2-(4′-fluoro-2′-(4-methyl-4H-1,2,4-triazol-3-yl)-[1,1′-biphenyl]-3-yl)-7-(trifluoromethyl)benzo[d]oxazol-5-yl)methyl)methanamine] |  | 
22 | < 0.2 | < 0.2 | < 0.2 | CN(Cc1cc(Cl)c2oc(-c3cccc(-c4ccc(F)cc4-c4nncn4C)c3)nc2c1)[C@@H]1CCC[C@@H]1O [HS-3, (1S,2R)-2-(((7-Chloro-2-(4′-fluoro-2′-(4-methyl-4H-1,2,4-triazol-3-yl)-[1,1′-biphenyl]-3-yl)benzo[d]oxazol-5-yl)methyl)(methyl)amino)cyclopentan-1-ol] |  | 
